# Read-outs that look alike come from different tables or passages of the source.
# Tests used:
# [1] = test system: MDCK-hOCT1 cells; test: MTT drug sensitivity assay in MDCK-hOCT1 cells; assay type: cell-based, canine; conditions: read-out: IC50 MDCK-hOCT1
# Description: (§1) Cytotoxicity of the platinum-based compounds was measured by MTT (thiazolyl blue tetrazolium bromide) assay. Cells were seeded in 100 μl of the culture medium without any antibiotics in 96-well plates at a predetermined cell density. For HEK 293 cells, poly-D-lysine coated plates were used. […] For the OCT inhibitor studies, the inhibitors (i.e., disopyramide or cimetidine) were added to the medium at a specified concentration immediately before the addition of the platinum-based compounds. After incubation for a specified time period, the drug-containing medium was replaced with fresh, drug-free medium and the incubation was continued for a total of 72 hours (start from the addition of platinum-based compounds). Then, the MTT assay was performed similarly as described in Alley et al., Cancer Res., 48:589-601 (1988). […] The maximal cell growth was the cell growth in the medium without any platinum-based compounds; C is the concentration of the platinum-based compound, and γ is the slope factor.
# (§2) Briefly, the cells were seeded in 96-well plates at a density of 5,000 cells/well for the transfected MDCK cells or 12,000 cells/well for the transfected HEK 293 cells. The platinum-based drugs were added on the following day. After the specified time periods of drug exposure, the drug-containing medium was replaced with fresh, drug-free medium, and the incubation was continued for a total of 72 hours (start from the time when the drug was added). After incubation, the cell growth was determined by an MTT assay. Data are expressed as mean±SD from 3 to 6 independent experiments with each performed in quadruplicate. The resistance factor (RF) was defined as the ratio of the mean IC50 value in the MOCK cells to that in the OCT-transfected cells.
# (§3) Briefly, MDCK cells were seeded at a density of 5,000 cells/well in 96-well plates and exposed to the test compounds for 7 hours on the following day. After incubation for a total of 72 hours, the cell growth was determined by an MTT assay. The data for carboplatin was taken from Table 1 and was not determined simultaneously with the other compounds. The resistance factor (RF) was defined as the ratio of the mean IC50 value in MDCK-MOCK cells to that in MDCK-hOCT1 cells. Data are expressed as mean±SD from six measurements, and each measurement was performed in quadruplicate.
# [2] = test system: MDCK-MOCK cells; test: Cellular accumulation of platinum in MDCK-MOCK cells (ICP-MS); assay type: in vitro ADME, canine; conditions: 2-hr exposure, drug 15 μM
# Description: (§4) For the inhibitor studies, the incubation medium also contained disopyramide (150 μM). […] For the inhibitor studies, the incubation medium also contained cimetidine (1.5 mM). […] After drug exposure, the cells were washed with ice-cold PBS three times and harvested by scraping and centrifugation. The cell-associated platinum was determined by ICP-MS and normalized for protein content. Data are expressed as mean±SD from a single experiment performed in triplicate. Experiments were replicated for OCT1 and OCT2, and similar results were obtained.
# (§5) The cellular accumulation of platinum was determined as described in Holzer et al., Mol. Pharmacol., 66:817-823 (2004) with some modifications. Briefly, the cells were grown in 100 mm×20 mm dishes in the culture medium without any antibiotics to over 90% confluence. For HEK 293 cells, poly-D-lysine coated dishes were used. For platinum accumulation, the cells were incubated in the culture medium containing the indicated concentrations of the platinum compounds at 37° C. in 5% CO2 for 2 hr unless specified. After incubation, the dishes were immediately placed on ice and the cells were washed with 6 ml of ice-cold PBS for three times and collected with a rubber policeman. The cell pellets were obtained by centrifugation at 400×g and at 4° C. for 15 min. For the OCT inhibitor studies, the incubation medium also contained the indicated inhibitor (i.e., disopyramide or cimetidine) in addition to the platinum-based compounds. The resulting cell pellets were then dissolved into 200 μl of 70% nitric acid at 65° C. for at least 2.5 hours, and then distilled water containing 10 ppb of iridium (Sigma) and 0.1% Triton X-100 was added to the samples to dilute nitric acid to 7%. The platinum content was measured by inductively plasma coupled mass spectrometry (ICP-MS) in the Analytical Facility at the University of California at Santa Cruz (Santa Cruz, Calif.). Cell lysates from a set of identical cultures were used for BCA protein assay.
# [3] = test system: HEK-MOCK cells; test: MTT drug sensitivity assay in HEK-MOCK cells (control of HEK-hOCT2); assay type: cell-based, human; conditions: drug exposure 7 hour; Table 2; read-out: IC50 HEK-MOCK
# Description: (§6) Cytotoxicity of the platinum-based compounds was measured by MTT (thiazolyl blue tetrazolium bromide) assay. Cells were seeded in 100 μl of the culture medium without any antibiotics in 96-well plates at a predetermined cell density. For HEK 293 cells, poly-D-lysine coated plates were used. After overnight incubation, the platinum-based compounds were then added to the culture medium to give the indicated final concentrations. For the OCT inhibitor studies, the inhibitors (i.e., disopyramide or cimetidine) were added to the medium at a specified concentration immediately before the addition of the platinum-based compounds. After incubation for a specified time period, the drug-containing medium was replaced with fresh, drug-free medium and the incubation was continued for a total of 72 hours (start from the addition of platinum-based compounds). Then, the MTT assay was performed similarly as described in Alley et al., Cancer Res., 48:589-601 (1988). […] The maximal cell growth was the cell growth in the medium without any platinum-based compounds; C is the concentration of the platinum-based compound, and γ is the slope factor.
# as §2
# [4] = test system: HEK-hOCT2 cells; test: MTT drug sensitivity assay in HEK-hOCT2 cells; assay type: cell-based, human; conditions: drug exposure 7 hour; read-out: IC50 HEK-hOCT2
# Description: as §1, §2
# [5] = test system: HEK-MOCK cells; test: MTT drug sensitivity assay in HEK-MOCK cells (control of HEK-hOCT3); assay type: cell-based, human; conditions: drug exposure 7 hour; Table 3
# Description: as §6, §2
# [6] = test system: MDCK-MOCK cells; test: MTT drug sensitivity assay in MDCK-MOCK cells; assay type: cell-based, canine; conditions: read-out: IC50 MDCK-MOCK
# Description: as §6, §2, §3
# [7] = test system: HEK-hOCT3 cells; test: MTT drug sensitivity assay in HEK-hOCT3 cells; assay type: cell-based, human; conditions: drug exposure 7 hour
# Description: as §1, §2
# [8] = test system: HEK-hOCT2 cells; test: Cellular accumulation of platinum in HEK-hOCT2 cells (ICP-MS); assay type: in vitro ADME, human; conditions: 2-hr exposure
# Description: as §4, §5
# [9] = test system: MDCK-hOCT1 cells; test: Cellular accumulation of platinum in MDCK-hOCT1 cells (ICP-MS); assay type: in vitro ADME, canine; conditions: 2-hr exposure
# Description: as §4, §5
# [10] = test system: HEK-MOCK cells; test: Cellular accumulation of platinum in HEK-MOCK cells (ICP-MS); assay type: in vitro ADME, human; conditions: cimetidine 1.5 mM
# Description: as §4
# The cellular accumulation of platinum was determined as described in Holzer et al., Mol. Pharmacol., 66:817-823 (2004) with some modifications. Briefly, the cells were grown in 100 mm×20 mm dishes in the culture medium without any antibiotics to over 90% confluence. For HEK 293 cells, poly-D-lysine coated dishes were used. For platinum accumulation, the cells were incubated in the culture medium containing the indicated concentrations of the platinum compounds at 37° C. in 5% CO2 for 2 hr unless specified. […] The platinum content was measured by inductively plasma coupled mass spectrometry (ICP-MS) in the Analytical Facility at the University of California at Santa Cruz (Santa Cruz, Calif.). […]
# [11] = pKa values and species distribution of aquated oxaliplatin in incubation buffer; assay type: physicochemical; conditions: PB—SO4 buffer, pH 7.4, calculated from pKa values
# [12] = test system: MDCK-hOCT1 cells; test: Platinum-DNA adduct formation in MDCK-hOCT1 cells; assay type: cell-based, canine; conditions: 1 μM, PB—SO4, 25 min
# Description: (§7) After incubation at 37° C. and 5% CO2 for 2 hours, the cells were washed with ice-cold PBS three times and harvested. The genomic DNA was isolated from the cells and the platinum content associated with DNA was determined by ICP-MS and normalized for DNA content. Data are expressed as mean±SD from a typical experiment performed in triplicate. Two independent experiments were conducted and similar results were obtained.
# (§8) After incubation, the cells were washed with ice-cold PBS three times and harvested. Genomic DNA was isolated from the harvested cells and the DNA-associated platinum content was determined by ICP-MS and normalized for the DNA content. Data are expressed as mean±SD of three measurements.
# (§9) The platinum content associated with genomic DNA was determined as described in Samimi et al., Clin. Cancer Res., 10:4661-4669 (2004) with some modifications. Briefly, the cells were grown in 100 mm×20 mm dishes in the culture medium without any antibiotics to over 90% confluence. For HEK 293 cells, poly-D-lysine coated dishes were used. Then, the cells were incubated in the culture medium containing the specified concentrations of the platinum-based compounds at 37° C. in 5% CO2 for 2 hours (or 25 min as specified). In some experiments, phosphate buffer (PB: 1.06 mM KH2PO4, 2.97 mM Na2HPO4, pH 7.4) containing 155 mM NaCl (PB—Cl buffer) or 103 mM Na2SO4 (PB—SO4 buffer) was used instead of the culture medium as specified. For the OCT inhibitor study, the incubation medium (buffer) also contained disopyramide or cimetidine). If PB—Cl or PB—SO4 buffer was used, the cells were washed with the same buffer once before drug incubation. After incubation, the cells were washed with ice-cold PBS, scraped, and pelleted. Genomic DNA was isolated from the cell pellets using the Wizard® Genomic DNA Purification Kit (Promega, Madison, Wis.) following the manufacturer's instructions. Briefly, the cells were lysed with Nuclei Lysis Solution. After RNA digestion and protein precipitation, the lysates were centrifuged and the resulting supernatant was aliquoted. The genomic DNA prepared from two different aliquots of the supernatant was used for platinum and DNA content determination, respectively. For the determination of platinum, the DNA samples were treated with 70% nitric acid at 65° C. and diluted in the same way as described above. The platinum content was analyzed using ICP-MS and the DNA content was measured by absorption spectroscopy.
# [13] = test system: MDCK-MOCK cells; test: Platinum-DNA adduct formation in MDCK-MOCK cells; assay type: cell-based, canine; conditions: 1 μM, PB—SO4, 25 min
# Description: as §7, §8, §9
# [14] = SAR study Table 4, 7 hours of drug exposure
# [15] = drug exposure 7 hour, MTT at 72 hours, Table 1
smiles,measurement,setting,value
N.N.O=C([O-])C1(C(=O)[O-])CCC1.[Pt+2] [carboplatin],IC50,[1]; [14],227 ± 85.8 µM
same,IC50,[1]; [15],227 ± 85.8 µM
same,cellular platinum accumulation rate in MDCK-MOCK,[2],2.22±0.07 pmol/mg protein-hr
same,IC50,[3],110 ± 46.3 µM
same,IC50,[4],61.6 ± 46.3 µM
same,IC50,[5],84.8 ± 9.71 µM
same,IC50,[6]; [14],258 ± 86.3 µM
same,IC50,[6]; [15],258 ± 86.3 µM
same,IC50,[7],48.1 ± 23.4 µM
same,"fold higher platinum accumulation rate, HEK-hOCT2 vs HEK-MOCK",[8],1.38 fold
same,cellular platinum accumulation rate in HEK-hOCT2,[8]; drug 10 μM,4.17±0.18 pmol/mg protein-hr
same,cellular platinum accumulation rate in MDCK-hOCT1,[9]; drug 15 μM,2.77±0.36 pmol/mg protein-hr
same,effect of disopyramide on platinum accumulation rate in MDCK-hOCT1,[9]; disopyramide 150 μM,not inhibited by disopyramide
same,effect of cimetidine on platinum accumulation / cellular uptake in HEK-MOCK,[10],little effect
"[Cl][Pt]1([Cl])[NH]C2CCCCC2[NH]1 [[Pt(R,R-DACH)Cl2]]",IC50,[1]; [14],0.65 ± 0.26 µM
same,IC50,[6]; [14],15 ± 3.24 µM
"NC1CCCCC1N.O.O.[Pt+2] [[Pt(R,R-DACH)(H2O)2]^2+]",percentage of aqua/hydroxo species,[11],17.1%
same,percentage of diaqua species,[11],82.8%
same,DNA-associated platinum level in MDCK-hOCT1,[12],0.0139±0.0020 pmol/μg DNA
same,rb in MDCK-hOCT1,[12],4.59±0.66×10^−6
same,DNA-associated platinum level in MDCK-MOCK,[13],0.0142±0.0028 pmol/μg DNA
same,rb in MDCK-MOCK,[13],4.69±0.92×10^−6
"[Cl][Pt]1([Cl])[NH]C2CCCCC2[NH]1 [[Pt(S,S-DACH)Cl2]]",IC50,[1]; [14],0.57 ± 0.18 µM
same,IC50,[6]; [14],16.2 ± 3.72 µM
"O=C1[O][Pt]2([NH]C3CCCCC3[NH]2)[O]C1=O [[Pt(S,S-DACH)oxalato]]",IC50,[1]; [14],1.45 ± 1.16 µM
same,IC50,[6]; [14],30 ± 14.2 µM

# Reference: US20100028259A1, “USE OF ORGANIC CATION TRANSPORTERS FOR CANCER DIAGNOSIS AND THERAPY” (The Regents of the University of California, priority 2006, published 2010)
